Consider 8 compounds from EP4335840A1, “NEW CONTRAST AGENTS FOR USE IN DIAGNOSTIC IMAGING” (priority 2022, dated 2024).

SMILES strings stand for the structures. Read-outs that look alike come from different tables or passages of the source.

For data set [1] the following is noted: 1.5 T, 37°C, from Rohrer et al., cited from earlier work; for r1 bovine plasma: bovine plasma instead of human plasma.
The nature of data set [2]: Complex stability (transmetallation with Zn2+, proton relaxometry). In kind it is physicochemical. To be noted: 72 hours, 2.5 mM Zn2+, 26 mM phosphate buffer, 37°C, pH 7.4; 1.41 T. How it is done:
The used method is described elsewhere (Laurent S et al., Stability of MRI paramagnetic contrast media: a proton relaxometric protocol for transmetallation assessment. Invest Radiol. 2001 Feb;36(2):115-22). In brief: A solution containing 2.5 mmol/L of test compound and 2.5 mmol/L ZnCl2 in 26 mM phosphate buffer (KH2PO4 Merck; 1.09439.1000, #HC748513, pH 7,00), was incubated at 37°C over a period of at least 3 days. If test compounds are instable under these conditions, transmetallation during this test would lead to the formation of the Zn^2+ complex of the test item, while Gd^3+ is released and precipitated as highly insoluble GdPO4.
After 3d of incubation T1 relaxation time was observed. […] Table 2: Transmetallation stability [%] of paramagnetic contrast agents over 72 hours (2.5 mM Zn2+, 26 mM phosphate buffer, 37°C, pH 7.4).

Data set [3] can be described thus: Water solubility in aqueous buffer. In kind it is physicochemical. How it is done: The exploratory water solubility of the compounds is determined at room temperature (20°C) in 0.5 mL buffer solution (10 mM Tris-HCI, pH 7.4) in the microcentrifuge tubes (Eppendorf, 2.0 mL safe-lock caps). The solid compounds were added stepwise to the buffer solution. More substance is added once all the suspended material is dissolved until an equilibrium between undissolved and dissolved substance is reached. The suspension was mixed using a shaker (Heidolph Reax 2000) and treated 5 min in an ultrasound bath (Bandelin, Sonorex Super RK255H). The Gadolinium concentration of the test substance in the clear solution is measured by ICP-MS. Table 1: Solubilities of compounds in aqueous buffer at 20°C (pH 7.4).

Another data set addresses T1, OATP1B3 (Homo sapiens, UniProt Q9NPD5).
T1 sequence (Q9NPD5 1-702): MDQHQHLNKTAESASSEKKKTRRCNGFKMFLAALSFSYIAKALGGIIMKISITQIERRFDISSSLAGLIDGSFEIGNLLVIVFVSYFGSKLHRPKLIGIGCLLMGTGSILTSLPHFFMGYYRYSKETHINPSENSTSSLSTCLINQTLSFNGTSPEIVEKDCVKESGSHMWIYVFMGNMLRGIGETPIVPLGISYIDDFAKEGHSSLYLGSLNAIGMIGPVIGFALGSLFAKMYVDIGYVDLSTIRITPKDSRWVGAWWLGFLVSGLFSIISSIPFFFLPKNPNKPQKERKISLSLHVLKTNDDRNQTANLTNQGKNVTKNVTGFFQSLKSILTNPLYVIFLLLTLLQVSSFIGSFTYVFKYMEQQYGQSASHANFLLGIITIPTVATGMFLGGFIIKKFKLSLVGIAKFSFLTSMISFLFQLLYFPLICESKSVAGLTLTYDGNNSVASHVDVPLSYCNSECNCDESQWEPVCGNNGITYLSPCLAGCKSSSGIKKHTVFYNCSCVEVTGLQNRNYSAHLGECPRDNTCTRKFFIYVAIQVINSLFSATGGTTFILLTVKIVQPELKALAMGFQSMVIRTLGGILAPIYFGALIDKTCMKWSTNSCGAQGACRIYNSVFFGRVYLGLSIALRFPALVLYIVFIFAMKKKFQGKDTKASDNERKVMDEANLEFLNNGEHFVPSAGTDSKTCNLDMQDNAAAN
The data set can be described thus: Uptake into stable transfected OATP1B3 HEK 293 cells. In kind it is cell-based.

Data set [4] is described as follows: Relaxivity measurements at 1.41 T in water and human plasma. In kind it is physicochemical. To be noted: 37°C, normalized to Gd. On the procedure:
Relaxivity measurements at 1.41 T were performed using a MiniSpec mq60 spectrometer (Bruker Analytik, Karlsruhe, Germany) operating at a resonance frequency of 60 MHz and a temperature of 37°C. The T1 relaxation times were determined using the standard inversion recovery (IR) method with a fixed relaxation delay of at least 5 × T1. The variable inversion time (TI) was calculated automatically by the standard software of the MiniSpec mq60 (8 steps). The T2 measurements were performed by using a Carr-Purcell-Meiboom-Gill (CPMG) pulse sequence, applying a relaxation delay of at least 5 × T1.
Each relaxivity measurement was performed using three different Gd concentrations (3 concentrations between 0.05 and 2 mM). The T1 and T2 relaxation times of the example compounds 1 to 10 were measured in different media for example in water and human plasma. Human plasma preparation: For each experiment fresh blood was taken from a volunteer using 10 mL citrate-tubes (Sarstedt S-Monovette 02.1067.001, 10 mL, Citrate). The 10 mL citrate-tubes were carefully inverted 10 times to mix blood and anticoagulant and centrifuged for 15min at 1811 g at RT (Eppendorf, Centrifuge 5810R).
The relaxivities ri (where i=1, 2) were calculated based on the measured relaxation rates Ri in water and plasma: ri = (Ri−Ri(0))/CGd [formula] where Ri(0) represent the relaxation rate of the respective solvent and CGd the concentration of the compound normalized to the Gadolinium. The Gadolinium concentrations of the investigated solutions were verified by Inductively Coupled Plasma Mass Spectrometry (ICP-MS Agilent 7500a, Waldbronn, Germany). Table 3: Relaxivities of investigated compounds in water and human plasma at 1.41 T and relaxivities of Reference compounds 1-3 (RC1-RC3) at 1.5 T in water and bovine plasma. All values are measured at 37°C and normalized to Gd and given in L mmol-1 s-1.

In a further data set the target is T2, OATP1B1 (Homo sapiens, UniProt Q9Y6L6).
T2 sequence (Q9Y6L6 1-691): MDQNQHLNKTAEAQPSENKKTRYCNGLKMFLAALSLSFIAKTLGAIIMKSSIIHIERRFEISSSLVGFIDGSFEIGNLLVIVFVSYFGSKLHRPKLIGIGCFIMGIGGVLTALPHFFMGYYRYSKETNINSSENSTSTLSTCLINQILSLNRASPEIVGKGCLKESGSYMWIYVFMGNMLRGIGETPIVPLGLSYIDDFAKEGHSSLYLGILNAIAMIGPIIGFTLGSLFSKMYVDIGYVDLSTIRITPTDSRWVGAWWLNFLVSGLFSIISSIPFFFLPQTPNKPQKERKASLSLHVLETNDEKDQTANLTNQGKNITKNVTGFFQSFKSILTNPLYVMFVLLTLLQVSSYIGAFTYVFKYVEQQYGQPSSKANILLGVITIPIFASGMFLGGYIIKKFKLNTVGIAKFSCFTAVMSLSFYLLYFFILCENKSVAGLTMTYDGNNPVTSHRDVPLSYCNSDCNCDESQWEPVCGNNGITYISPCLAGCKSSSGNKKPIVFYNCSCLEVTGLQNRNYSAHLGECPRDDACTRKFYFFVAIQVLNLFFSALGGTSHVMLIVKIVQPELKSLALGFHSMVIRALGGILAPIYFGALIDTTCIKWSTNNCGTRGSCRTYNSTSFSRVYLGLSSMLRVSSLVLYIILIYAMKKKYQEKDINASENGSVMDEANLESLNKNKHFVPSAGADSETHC
Briefly: Uptake into stable transfected OATP1B1 HEK 293 cells. In kind it is cell-based.

Data set [5] concerns freshly isolated rat hepatocytes. Briefly: Uptake into freshly isolated rat hepatocytes. To be noted: rat hepatocyte uptake with OATP1B1/1B3 inhibitor Rifampicine, test item and inhibitor each 100 µM.
Method: The rat hepatocytes were incubated (2.5 ·10^5 cells/well) for 2.5 to 4h in collagen coated 24-well plates (Fa. Beckton Dickinson Biocoat, cell environments, Collagen I Cellware) in Williams E-medium (Fa. Sigma W1878) in an incubator (37°C, 5% CO2 and 95% oxygen). After incubation the adherent hepatocytes were washed once with 37°C Hepes carbonate transport buffer (500 µL/well). The test items and RC1 were prepared from stock solutions (180 to 500 mM concentration) in Hepes carbonate transport buffer at pH 7.4 to reach a final concentration of 100 µmοl Gd/L. The specific uptake of the test item or RC1 into rat hepatocytes via OATP1 B1 and OATP1 B3 was challenged using a known OATP1B1/1B3 inhibitor (Rifampicine, Fa. Sigma R3501, test item and inhibitor 1:1 each 100 µM final concentration). The prepared rat hepatocyte plates were incubated with test solutions (500 µL/well) at 37°C for 10 min using a thermoshaker (Fa. Grant Bio, PHMP). Triplicates were performed for each test item. After incubating the cells were washed once with cold PBS buffer (Fa. Gibco, Dulbeccos PBS (+)). After washing the intact hepatocytes were lysed by addition of 500 µL cold 0.01 % Triton-X 100 in Millipore water for 1h. […] After 1h 500 µL of 10 nM Terbium ICP-MS standard was added in 2% nitric acid and 0.01% Triton 100 before the Gadolinium concentrations in the lysate were measured using ICP-MS (Agilent 8900, singleQuad, integr. Time 0.3 s, no gas, 5 replicates, Gd m/z 157, Tb m/z 159). As a reference standard RC1 is used in the same well plate. The hepatocyte uptake of the test compound is calculated relative to RC1 (resulting in the unit % of RC1).
The conditions of data set [6]: in vivo; cited from earlier work.
Setting [7] is: aqueous buffer 10 mM Tris-HCl, pH 7.4, 20°C, Gd by ICP-MS.
Setting [8] is: OATP1B3-HEK 293 cell uptake with Rifampicine.
The mark [9] stands for this setting: OATP1B1-HEK 293 cell uptake with Rifampicine.

On to `O=C([O-])CN1CCN(CC(=O)[O-])CCN([C@H](CO)[C@H](O)CO)CCN(CC(=O)[O-])CC1.[Gd+3]` (racemic) [RC3, gadobutrol], for which, in data set [1], the r1 bovine plasma was 5.2 L/mmol/s and the r1 water is 3.3 L/mmol/s. Also, the “Stability (transmetallation stability, T1 relaxation rates R1n/R10)” value (from here on “Stability”) in data set [2] is recorded as “stable”.

As for `COCCOCCOCCOc1ccc(C[C@H]2CN(CC(=O)[O-])CCN(CC(=O)[O-])CCN(CC(=O)O)CCN2CC(=O)[O-])cc1.[Gd+3]` [Example 1, Gadolinium-2,2',2"-[(2S)-10-(carboxymethyl)-2-(4-{2-[2-(2-methoxyethoxy)-ethoxy]ethoxy}benzyl)-1,4,7,10-tetraazacyclododecane-1,4,7-triyl]triacetate], the Solubility in data set [3] (setting [7]) is > 201 mM. For the same compound, the “Inhibition Rifampicine” value at OATP1B3 (setting [8]) is recorded as 92 % inhibition; on OATP1B1 (setting [9]), 21 % inhibition; in data set [5], 90 % inhibition. For the same compound, in data set [4], the r1 human plasma was found to be 6.6 L/mmol/s. This compound returned a r1 water in data set [4] of 5.1 L/mmol/s.

For the compound `CCOCCOCCOc1ccc(C[C@H]2CN(CC(=O)[O-])CCN(CC(=O)[O-])CCN(CC(=O)O)CCN2CC(=O)[O-])cc1.[Gd+3]` [Example 2, Gadolinium-2,2',2"-[(2S)-10-(carboxymethyl)-2-{4-[2-(2-ethoxyethoxy)ethoxy]benzyl}-1,4,7,10-tetraazacyclododecane-1,4,7-triyl]triacetate], in data set [3] (setting [7]), the Solubility is > 55 mM. Moreover, the “Inhibition Rifampicine” value is given as 86 % inhibition on OATP1B3 (setting [8]), 0 % inhibition at OATP1B1 (setting [9]) and 93 % inhibition in data set [5]. For the same compound, the “Stability” value in data set [2] was 95%. In addition, the r1 human plasma in data set [4] worked out at 5.9 L/mmol/s. In data set [4], this compound returned a r1 water of 4.9 L/mmol/s.

Turning to `COCCOCCOCCOc1ccc(C[C@@H]2CN(CC(=O)[O-])CCN(CC(=O)[O-])CCN(CC(=O)O)CCN2CC(=O)[O-])cc1.[Gd+3]` [Example 3, Gadolinium-2,2',2"-[(2R)-10-(carboxymethyl)-2-(4-(2-[2-(2-methoxyethoxy)ethoxy]ethoxy}benzyl)-1,4,7,10-tetraazacyclododecane-1,4,7-triyl]triacetate], the Solubility in data set [3] (setting [7]) is > 166 mM. The “Inhibition Rifampicine” value at OATP1B3 (setting [8]) worked out at 84 % inhibition; at OATP1B1 (setting [9]) it was 31 % inhibition; in data set [5], 83 % inhibition. This compound also returned a r1 human plasma in data set [4] of 6.8 L/mmol/s. The r1 water in data set [4] was found to be 5.0 L/mmol/s.

For `CCOCCOCCOCCOc1ccc(C[C@H]2CN(CC(=O)[O-])CCN(CC(=O)[O-])CCN(CC(=O)O)CCN2CC(=O)[O-])cc1.[Gd+3]` [Example 5, Gadolinium-2,2',2"-[(2S)-10-(carboxymethyl)-2-(4-{2-[2-(2-ethoxyethoxy)ethoxy]ethoxy}benzyl)-1,4,7,10-tetraazacyclododecane-1,4,7-triyl]triacetate], the Solubility in data set [3] (setting [7]) is > 284 mM. Further, the entries for the “Inhibition Rifampicine” value (at OATP1B3 (setting [8]); at OATP1B1 (setting [9]); in data set [5]) were 96 % inhibition, 41 % inhibition and 89 % inhibition, respectively. Also, the “Stability” value in data set [2] was found to be 96%. Moreover, in data set [4], the r1 human plasma was determined as 5.7 L/mmol/s. The compound further displayed a r1 water in data set [4] of 5.1 L/mmol/s.

On to `CCOCCOCCOc1ccc(C[C@H]2CN(CC(=O)[O-])CCN(CC(=O)[O-])CCN(CC(=O)O)CCN2CC(=O)[O-])nc1.[Gd+3]` [Example 6, Gadolinium 2,2',2"-[(2S)-10-(carboxymethyl)-2-({5-[2-(2-ethoxyethoxy)ethoxy]pyridin-2-yl}methyl)-1,4,7,10-tetraazacyclododecane-1,4,7-triyl]triacetate], for which the entries for the “Inhibition Rifampicine” value (at OATP1B3 (setting [8]); on OATP1B1 (setting [9]); in data set [5]) were 65 % inhibition, 2 % inhibition and 91 % inhibition, respectively. In addition, the r1 human plasma in data set [4] was 5.9 L/mmol/s. This compound gave a r1 water in data set [4] of 5.3 L/mmol/s.

Consider `CCOc1ccc(CC(CN(CCN(CC(=O)[O-])CC(=O)[O-])CC(=O)[O-])N(CC(=O)[O-])CC(=O)[O-])cc1.[Gd+3].[Na+].[Na+]` (stereo not drawn) [RC1, gadoxetate disodium, reference compound], for which the Solubility in data set [3] (pH 7.4) was > 250 mM. In data set [1], the r1 bovine plasma is 6.9 L/mmol/s. Further, the r1 water in data set [1] is 4.7 L/mmol/s. In data set [6], the “excreted into the bile” value is on record as “up to 50 % of the administered dose”. In addition, the figures for the “Inhibition Rifampicine” value (at OATP1B3; on OATP1B1; in data set [5]) were 99 % inhibition, 81 % inhibition and 97 % inhibition, respectively.

`O=C([O-])CN(CCN(CC(=O)[O-])CC(=O)[O-])CCN(CC(=O)[O-])C(COCc1ccccc1)C(=O)[O-].[Gd+3].[H+].[H+]` (stereo not drawn) [RC2, gadobenic acid]: in data set [1], the r1 bovine plasma was 6.3 L/mmol/s and the r1 water is 4.0 L/mmol/s. The “secreted into the bile” value in data set [6] is 3-to-5%. In data set [5], the “Inhibition Rifampicine” value was 79 % inhibition.
